In patent publication EP4755892A1, “KINESIN KIF18A INHIBITOR AND USE THEREOF” (Shanghai Apeiron Therapeutics Company Limited, priority 2023, dated 2025) one finds IC50 data, which are given here for 13 compounds.

pIC50: −log10 of the molar value. Like-named read-outs stand apart in the source and are kept apart here.

Assay [1] has as its target T1, Human KIF18A (amino acid sequence 1-417) (Homo sapiens, UniProt Q8NI77).
T1 construct: purchased Viva Biotech (Shanghai) Ltd
T1 sequence (Q8NI77 1-417): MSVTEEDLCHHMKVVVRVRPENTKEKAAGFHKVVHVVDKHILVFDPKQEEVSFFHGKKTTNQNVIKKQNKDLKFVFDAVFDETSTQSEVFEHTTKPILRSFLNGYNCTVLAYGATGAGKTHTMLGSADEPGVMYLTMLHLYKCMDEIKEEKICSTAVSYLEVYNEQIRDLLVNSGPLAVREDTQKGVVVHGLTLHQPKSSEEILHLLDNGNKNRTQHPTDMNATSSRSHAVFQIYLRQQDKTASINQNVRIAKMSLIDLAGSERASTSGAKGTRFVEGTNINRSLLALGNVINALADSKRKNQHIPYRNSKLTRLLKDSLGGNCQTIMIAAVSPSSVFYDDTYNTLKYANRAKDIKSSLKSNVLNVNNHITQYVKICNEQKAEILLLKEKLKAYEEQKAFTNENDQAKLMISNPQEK
Kind of assay: Enzymatic Activity Test (ADP-Glo, microtubule-stimulated KIF18A ATPase). It is filed as biochemical. To be noted: 60 µg/mL microtubules, 25 µM ATP, 2.5 nM KIF18A protein, 120 min at ambient temperature, chemiluminescence; read-out: KIF 18A IC50. On the procedure: Assay 1: Enzymatic Activity Test
Materials: Human KIF18A (amino acid sequence 1-417) was purchased from Viva Biotech (Shanghai) Ltd.; the ADP-Glo™ protein kinase kit was acquired from Promega, USA; tubulin was sourced from Cytoskeleton, USA; and the 384-well assay plate and Envision multifunctional microplate reader were obtained from PerkinElmer, USA.
Enzymatic Activity Test: The compound powder was dissolved in DMSO to prepare a stock solution of 10 mM. Then gradient dilution was performed for the compounds in the microplate to achieve a final concentration of 0-10 µM. Then, 2.5 µL each of tubulin, compound, ATP, and KIF18A protein were added to the microplate in sequence for reaction at ambient temperature for 120 min. The final concentrations in the enzyme reaction were 60 µg/mL for microtubules, 25 µM for ATP, and 2.5 nM for KIF18A protein. After the enzyme reaction, 10 µL of ADP-GLO reaction reagent was added to each well and incubated at room temperature for 30 min. After that, 20 µL of detection reagent was added to each well and incubated at room temperature for 30 min in the dark. Finally, chemiluminescence detection was performed using the PerkinElmer Envision.

Another assay deals with OVCAR3 cells. In words: Cell Proliferation Activity Test (CyQUANT Direct), OVCAR3. It is filed as cell-based. Conditions: compound 0-10 µM, 3 days, 0.2% DMSO, CyQUANT fluorescence, read-out: OVCAR-3 _IC50_nM. On the procedure: Assay 2: Cell Proliferation Activity Test
Materials and Cells: OVCAR3 cells were purchased from Nanjing Cobioer Biosciences Co., Ltd. RPMI-1640 medium, fetal bovine serum, and the CyQUANT Direct Cell Proliferation Assay kit were purchased from Thermo Fisher Scientific, USA; 96-well cell culture plates were sourced from Coming, USA.
Cell Culture: OVCAR3 cells were cultured with RPMI-1640 medium containing 10% fetal bovine serum and incubated in a 5% CO2 incubator at 37°C. Only cells in the logarithmic growth phase could be used for the test.
Cell Proliferation Activity Test:
OVCAR3 cells were inoculated into a 96-well cell culture plate at 90 µL per well and incubated overnight in a 5% CO2 incubator at 37°C. The compound powder was dissolved in DMSO to prepare a stock solution of 10 mM. Then gradient dilution was performed for the compounds in the microplate to achieve a final concentration of 0-10 µM. 10 µL of cell culture medium containing compounds was added to each well to make the final DMSO content 0.2%. The cell plates were incubated in a 5% CO2 incubator at 37°C for 3 days. 100 µL of CyQUANT detection reagent was added to each well, reacted at 37°C for 60 min, and fluorescence detection was performed using the PerkinElmer Envision.

A further assay deals with HT29 cells. Kind of assay: CyQuant Cell Proliferation Activity Test, HT29. It is filed as cell-based. To be noted: HT29 cells 2000 per well, initial concentration 3000 nM, 3-fold dilution, 3 days, 0.2% DMSO, read-out: HT29_IC50 _nM. On the procedure: Assay 3: CyQuant Cell Proliferation Activity Test
Materials and Cells: HT29 cells were purchased from Nanjing Cobioer Biosciences Co., Ltd.; RPMI-1640 medium, fetal bovine serum, Trypsin-EDTA (0.25%), 96-well plates, and CyQuant reagents were purchased from ThermoFisher (USA); DMSO was purchased from SIGMA (USA).
Cell Culture: HT29 cells were cultured with RPMI-1640 containing 10% fetal bovine serum under the condition of 37°C and 5% CO2. Only cells in the logarithmic growth phase could be used for the test.
Cell Proliferation Activity Test: CyQuant reagent was used to detect the proliferation inhibitory activity of compounds on HT29 cells. The cell density was adjusted, and 100 µL per well was inoculated into a 96-well plate (HT29 at 2000 cells per well), then incubated overnight at 37°C and 5% CO2. Add compounds of various target concentrations (initial concentration of 3000 nM, 3-fold dilution, 9 concentration gradients), and make the DMSO content 0.2%. The cell plate was incubated at 37°C in 5% CO2 for 3 days. CyQuant reagent was added and incubated for 1 h. The plates were read by Envision, and IC50 was calculated using XLFIT.

On to `O=C1Nc2cccc(c2)S(=O)(=O)NCCCCC2CCN(CC2)c2cc(NS(=O)(=O)CCO)ccc21` [Example 14, N-(6,6-dioxo-3-oxo-6-thia-1(1,4)-piperidin-2(1,2),5(1,3)-diphenylheterocycloundecane-2^5-yl)-2-hydroxy-1-ethanesulfonamide], for which the pIC50 in assay [1] was 7.68; with OVCAR3 cells (Homo sapiens, OVCAR-3, 72 h) it was 7.07; with HT29 cells (Homo sapiens, HT-29, 72 h), 6.82.
Regarding `Cc1cc2nc(n1)N1CCCC(C=CC3CCN(CC3)c3cc(NS(=O)(=O)CCO)ccc3C(=O)N2)C1` (stereo not drawn) [Example 4, 2-Hydroxy-N-(1^1-methyl-7-oxo-8-aza-1(2,4)-pyrimidin-2(1,3),5(4,1)-dipiperidin-6 (1,2)-benzeneheterocyclooct-3-en-6^5-yl)ethane-1-sulfonamide], the pIC50 in assay [1] is 6.13; in the assay on OVCAR3 cells (Homo sapiens, OVCAR-3, 72 h), 5.78; in the assay on HT29 cells (Homo sapiens, HT-29, 72 h), below 5.52.
With `Cc1cc2nc(n1)N1CCCC(C=CCC3CCN(CC3)c3cc(NS(=O)(=O)CCO)ccc3C(=O)N2)C1` (stereo not drawn) [Example 1A, 2-Hydroxy-N-((1^3S,E)-2^6-methyl-4-oxo-3-aza-2(2,4)-pyrimidin-1(1,3),6(1,4)-dipiperidin-5(1,2)-benzoaza-8-en-5^4-yl)ethane-1-sulfonamide], the pIC50 (in assay [1]; in the assay with OVCAR3 cells; with HT29 cells) was below 5.52 throughout.
Take `Cc1cc2nc(n1)N1CCC(F)(F)C(CC=CC3CCN(CC3)c3cc(NS(=O)(=O)CCO)ccc3C(=O)N2)C1` (stereo not drawn) [Example 19, (E)-N-(1^4,1^4-difluoro-2^6-methyl-4-oxo-3-aza-2(2,4)-pyrimidin-1(1,3),6(1,4)-dipiperidin-5(1,2)-benzeneheterocyclonon-7-en-5^4-yl)-2-hydroxyethane-1-sulfonamide]: the pIC50 in assay [1] was 6.74; with OVCAR3 cells (Homo sapiens, OVCAR-3, 72 h), 6.15; in the assay with HT29 cells (Homo sapiens, HT-29, 72 h), 6.19.
Taken in the same sequence, the figures for `O=C1Nc2cccc(c2)S(=O)(=O)NCC=CCCC2CCN(CC2)c2cc(NS(=O)(=O)CCO)ccc21` [Example 12, N-(6,6-dioxo-3-oxo-6-thia-4,7-diaza-1(1,4)-piperidin-2(1,2),5(1,3)-diphenylheterocyclododec-9-ene-2^5-yl)-2-hydroxy-1-ethanesulfonamide] were 7.55, 6.91 and 6.60.
As to `Cc1cc2nc(n1)N1CCCC(CCCCC3CCN(CC3)c3cc(NS(=O)(=O)CCO)ccc3C(=O)N2)C1` (stereo not drawn) [Example 7, 2-Hydroxy-N-(2^6-methyl-4-oxo-3-aza-2(2,4)-pyrimidin-1(1,3),6(1,4)-dipiperidin-5 (1,2)-benzenecyclodecane-5^4-yl)ethane-1-sulfonamide], the pIC50 is 6.71 in assay [1]; 6.62 in the assay on OVCAR3 cells (Homo sapiens, OVCAR-3, 72 h); 6.59 with HT29 cells (Homo sapiens, HT-29, 72 h).
In the case of `Cc1cc2nc(n1)N1CCCC(C=CCC3CCN(CC3)c3cc(NS(=O)(=O)CCO)ccc3C(=O)N2)C1` (stereo not drawn) [Example 1B, 2-Hydroxy-N-((1^3R,E)-2^6-methyl-4-oxo-3-aza-2(2,4)-pyrimidin-1(1,3),6(1,4)-dipiperidin-5(1,2)-benzoaza-8-en-5^4-yl)ethane-1-sulfonamide], the pIC50 is 7.47 in assay [1], 8.22 in the assay with OVCAR3 cells and 8.15 in the assay with HT29 cells.
Regarding `Cc1cc2nc(n1)N1CCCC(CCCC3CCN(CC3)c3cc(NS(=O)(=O)CCO)ccc3C(=O)N2)C1` (stereo not drawn) [Example 3, 2-Hydroxy-N-(2^6-methyl-4-oxo-3-aza-2(2,4)-pyrimidin-1(1,3),6(1,4)-dipiperidin-5 (1,2)-benzeneheterocyclononane-5^4-yl)ethane-1-sulfonamide], the figures for the pIC50 (in assay [1]; in the assay on OVCAR3 cells; in the assay on HT29 cells) were 7.01, 7.12 and 7.17, respectively.
For the compound `Cc1cc2nc(n1)N1CCC(F)(F)C(CCCC3CCN(CC3)c3cc(NS(=O)(=O)CCO)ccc3C(=O)N2)C1` (stereo not drawn) [Example 23, N-(1^4,1^4-difluoro-2^6-methyl-4-oxo-3-aza-2(2,4)-pyrimidin-1(1,3),6(1,4)-dipiperidin-5(1,2)-benzeneheterocyclononane-5^4-yl)-2-hydroxyethane-1-sulfonamide], the pIC50 is 6.99 in assay [1], 7.28 in the assay with OVCAR3 cells and 7.33 with HT29 cells.
`Cc1cc2nc(n1)N1CCC(F)(F)C(C=CCC3CCN(CC3)c3cc(NS(=O)(=O)CCO)ccc3C(=O)N2)C1` (stereo not drawn) [Example 18D, N-((1^3R,Z)-1^4,1^4-difluoro-2^6-methyl-4-oxo-3-aza-2(2,4)-pyrimidin-1(1,3),6(1,4)-dipiperidin-5(1,2)-benzeneheterocyclononane-8-en-5^4-yl)-2-hydroxyethane-1-sulfon amide]: the pIC50 in assay [1] is 6.46; in the assay on OVCAR3 cells it was 6.34; in the assay with HT29 cells, 6.18.
For `Cc1cc2nc(n1)N1CCCC(CCCC3CCN(CC3)c3cc(NS(=O)(=O)CCO)ccc3C(=O)N2)C1` (stereo not drawn) [Example 3B, 2-Hydroxy-N-((1^3S)-2^6-methyl-4-oxo-3-aza-2(2,4)-pyrimidin-1(1,3),6(1,4)-dipiperidin-5(1,2)-benzeneheterocyclononane-5^4-yl)ethane-1-sulfonamide], the pIC50 in assay [1] is 7.17; with OVCAR3 cells it was 7.44; in the assay on HT29 cells, 7.37.
Regarding `Cc1cc2nc(n1)N1CCCC(C=CCC3CCN(CC3)c3cc(NS(=O)(=O)CCO)ccc3C(=O)N2)C1` (stereo not drawn) [Example 1, 2-Hydroxy-N-(2^6-methyl-4-oxo-3-aza-2(2,4)-pyrimidin-1(1,3),6(1,4)-dipiperidin-5 (1,2)-benzeneheterocyclonon-8-en-5^4-yl)ethane-1-sulfonamide], the pIC50 in assay [1] was 7.21; in the assay with OVCAR3 cells it was 7.85; with HT29 cells, 7.77.
On to `COc1cc2nc(n1)N1CCC(F)(F)C(C=CCC3CCN(CC3)c3cc(NS(=O)(=O)CCO)ccc3C(=O)N2)C1` (stereo not drawn) [Example 24, (Z)-N-(1^4,1^4-difluoro-2^6-methoxy-4-oxo-3-aza-2(2,4)-pyrimidin-1(1,3),6(1,4)-dipiperidin-5(1,2)-benzeneheterocyclonon-8-en-5^4-yl)-2-hydroxyethane-1-sulfonamide], for which the pIC50 is 6.80 in assay [1]; 7.34 in the assay on OVCAR3 cells (Homo sapiens, OVCAR-3, 72 h); 7.20 in the assay on HT29 cells (Homo sapiens, HT-29, 72 h).
